# Reference: patent US20140288040A1, “SUBSTITUTED BENZYLAMINE COMPOUNDS, THEIR USE IN MEDICINE, AND IN PARTICULAR THE TREATMENT OF HEPATITIS C VIRUS (HCV) INFECTION” (ASTEX THERAPEUTICS LIMITED, priority 2011, published 2014)
# Where a name gives a salt, the structure may show the parent alone.
# Molecular target: T1, HCV NS3 protease (full length NS34a) (Hepatitis C virus genotype 1b, UniProt P26663)
# T1 construct: The protease activity of the full length NS34a was measured using a FRET-based assay; made in house
# Test: HCV NS3 protease assay (FRET, full length NS34a)
# Assay type: biochemical
# Conditions: IC50 values of 10-150 μM against the protease activity of the full length NS34a, or at least 40% inhibition of protease activity at a concentration of 100 μM
# Experimental: The HCV NS3 protease functions have been extensively studied and are considered as potential targets for antiviral therapy: see for example the many references listed in the introductory section of this application. Therefore, the activity of the compounds of the invention as anti-HCV agents was assessed using a full length HCV NS3 protease.
# The protease activity of the full length NS34a was measured using a FRET-based assay utilizing a peptide substrate derived from the NS4AB cleavage site (Anaspec) and labelled at one end with a quencher (QXL520) and at the other with a fluorophore (5-FAMsp). NS34a (produced in-house by literature methods) was incubated with test compounds and peptide substrate in 50 mM Tris pH8, 20 mM DTT, 1% CHAPS, 10% glycerol and 5% DMSO. The reaction was followed by monitoring the change in fluorescence on a Molecular Devices Gemini plate reader for 30 minutes at room temperature. Initial rates were calculated from the progress curves using SoftMax Pro (Molecular Devices). IC50 values were then calculated from replicate curves using Prism GraphPad software.
# T1 sequence (P26663 1658-1711): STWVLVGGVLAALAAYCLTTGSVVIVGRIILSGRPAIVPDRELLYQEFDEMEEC
# T1 sequence (P26663 1027-1657): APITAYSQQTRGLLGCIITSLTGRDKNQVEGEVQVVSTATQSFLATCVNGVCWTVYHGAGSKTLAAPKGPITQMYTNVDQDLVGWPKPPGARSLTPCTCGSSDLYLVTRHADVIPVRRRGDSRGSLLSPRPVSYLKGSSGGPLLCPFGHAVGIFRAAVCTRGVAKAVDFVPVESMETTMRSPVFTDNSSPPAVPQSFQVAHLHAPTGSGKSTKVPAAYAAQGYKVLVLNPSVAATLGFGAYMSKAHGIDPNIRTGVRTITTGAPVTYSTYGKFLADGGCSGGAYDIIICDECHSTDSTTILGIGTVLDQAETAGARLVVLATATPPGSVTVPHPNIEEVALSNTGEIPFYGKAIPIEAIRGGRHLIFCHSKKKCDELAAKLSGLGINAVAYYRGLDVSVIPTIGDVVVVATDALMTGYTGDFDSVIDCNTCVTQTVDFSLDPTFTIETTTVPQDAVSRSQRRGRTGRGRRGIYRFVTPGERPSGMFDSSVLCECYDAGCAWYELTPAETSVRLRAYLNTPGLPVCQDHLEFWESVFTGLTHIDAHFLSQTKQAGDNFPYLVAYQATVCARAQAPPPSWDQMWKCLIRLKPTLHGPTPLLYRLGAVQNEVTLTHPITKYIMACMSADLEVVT
row,Compound,IC50
1,N[C@@H](c1ccc(F)c(Oc2ccccc2)c1F)[C@@H]1CCC(=O)NC1 [Example 74B],10 to 150 µM
2,"NC(CC(=O)Nc1ccncc1)c1ccc(F)c(Oc2ccccc2)c1F (stereo not shown) [Example 20, 3-Amino-3-(2,4-difluoro-3-phenoxy-phenyl)-N-pyridin-4-yl-propionamide. dihydrochloride]",10 to 150 µM
3,"N[C@@H](CC1CCOCC1)c1ccc(Cl)c(Oc2ccccc2)c1F [Example 276B, (S)-1-(4-Chloro-2-fluoro-3-phenoxy-phenyl)-2-(tetrahydro-pyran-4-yl)-ethylamine.hydrochloride]",10 to 150 µM
4,CC[C@@H](N[C@H](C)CC(=O)NC[C@@H](C)O)c1ccc(Cl)c(Oc2ccccc2)c1F [Example 268],10 to 150 µM
5,CCC(NC(C)CC(=O)NC)c1ccc(F)c(Oc2ccccc2)c1F (stereo not shown) [Example 48],10 to 150 µM
6,C[C@H](CC(N)=O)N[C@@H](CC1CCNCC1)c1ccc(F)c(Oc2ccccc2)c1F [Example 99],10 to 150 µM
7,CC[C@@H](N[C@H](C)CC(=O)NC(C)C)c1ccc(Cl)c(Oc2ccccc2)c1F [Example 304],10 to 150 µM
8,"CC[C@@H](N[C@H](C)c1ccc[nH]c1=O)c1ccc(Cl)c(Oc2ccccc2)c1F (single isomer, unassigned) [Example 314]",10 to 150 µM
9,CN[C@H](CCOC)c1ccc(Cl)c(Oc2ccccc2)c1F [Example 359],10 to 150 µM
10,CCC(NCc1ncc[nH]1)c1ccc(F)c(Oc2ccccc2)c1F (stereo not shown) [Example 292],10 to 150 µM
11,"C=CCNC(CC)c1ccc(F)c(Oc2ccccc2)c1F (stereo not shown) [Example 39, Allyl-[1-(2,4-difluoro-3-phenoxy-phenyl)-propyl]-amine. hydrochloride]",10 to 150 µM

# The next lines start with the values.
row,IC50,Compound
1,10 to 150 µM,"NC(CO)c1ccc(F)c(Oc2ccccc2)c1F (stereo not shown) [Example 46, 2-Amino-2-(2,4-difluoro-3-phenoxy-phenyl)-ethanol. hydrochloride]"
2,10 to 150 µM,CC[C@@H](N[C@H](C)CC(N)=O)c1ccc(Cl)c(Oc2ccc(C#N)nc2)c1F [Example 247]
3,10 to 150 µM,CC[C@@H](N[C@H](C)CC(=O)N(C)OC)c1ccc(Cl)c(Oc2ccccc2)c1F [Example 160]
4,10 to 150 µM,CC[C@@H](N[C@H](C)CC(=O)NOC)c1ccc(Cl)c(Oc2ccccc2)c1F [Example 307]
5,10 to 150 µM,CC[C@@H](N)c1ccc(Cl)c(Oc2cccc(C(=O)NCCC#N)c2)c1F [Example 191]
6,10 to 150 µM,CC[C@@H](N[C@H](C)CC(N)=O)c1ccc(Cl)c(Oc2cccc(CO)c2)c1F [Example 117]
7,10 to 150 µM,CCC(NC1CCCC1)c1ccc(F)c(Oc2ccccc2)c1F (stereo not shown) [Example 30]
8,10 to 150 µM,CC[C@@H](N[C@H](C)CC(=O)NC(C)(C)CO)c1ccc(Cl)c(Oc2ccccc2)c1F [Example 269]
9,10 to 150 µM,CC[C@@H](N[C@H](C)CC(N)=O)c1ccc(Cl)c(Oc2ccc(N)c(C(F)(F)F)c2)c1F [Example 259]
10,10 to 150 µM,CCC(NCc1ccc2[nH]ccc2c1)c1ccc(F)c(Oc2ccccc2)c1F (stereo not shown) [Example 35]
11,10 to 150 µM,CCC(NC(C)C1CC1)c1ccc(F)c(Oc2ccccc2)c1F (stereo not shown) [Example 36]
12,10 to 150 µM,CC[C@@H](N[C@H](C)CC(=O)N[C@@H](C)CO)c1ccc(Cl)c(Oc2ccccc2)c1F [Example 205]
13,10 to 150 µM,"NC(c1cccnc1)c1ccc(F)c(Oc2ccccc2)c1F (stereo not shown) [Example 59A, C-(2,4-Difluoro-3-phenoxy-phenyl)-C-pyridin-3-yl-methylamine. dihydrochloride]"

# Same assay, conditions: protease activity of full length NS34a, FRET peptide substrate; read-out: Activity IC50
row,Compound,IC50
1,CC[C@H](Nc1ncc(CN)cn1)c1ccc(Cl)c(Oc2ccccc2)c1F [Example 330],1.1 µM
2,CC[C@@H](N[C@H](C)CC(N)=O)c1ccc(Cl)c(Oc2ccc(-c3cnco3)cc2)c1F [Example 220],4.6 µM
3,C[C@@H](CC(=O)NCCN)N[C@@H](CC1CCOCC1)c1ccc(Cl)c(Oc2ccccc2)c1F [Example 352],0.32 µM
4,CCC(NCc1c[nH]c2ccccc12)c1ccc(F)c(Oc2ccccc2)c1F (stereo not shown) [Example 31],7.1 µM
5,"CC[C@H](N)c1ccc(Cl)c(Oc2cccc(C(C)O)c2)c1F (stereo partly drawn) [Example 132B, 1-{3-[3-((S)-1-Amino-propyl)-6-chloro-2-fluoro-phenoxy]-phenyl}-ethanol.hydrochloride]",0.52 µM
6,CS(=O)(=O)Nc1cccc(Oc2c(F)ccc(CN[C@H]3CC[C@@H](N)CC3)c2F)c1 [Example 285],2.4 µM
7,CC[C@@H](N)c1ccc(Cl)c(Oc2cccc(S(C)(=O)=O)c2)c1F [Example 170],2.3 µM
8,CC[C@@H](N)c1ccc(Cl)c(Oc2ccc(N(C)C)cc2)c1F [Example 182],5.7 µM
9,CC[C@@H](NCCC(N)=O)c1ccc(F)c(Oc2ccccc2)c1F [Example 122],1 µM
10,"CC[C@H](N)c1ccc(Cl)c(Oc2cccc(C(=O)N(C)Cc3cn[nH]c3)c2)c1F [Example 141, 3-[3-((S)-1-Amino-propyl)-6-chloro-2-fluoro-phenoxy]-N-methyl-N-(1H-pyrazol-4-ylmethyl)-benzamide.hydrochloride]",2.8 µM
11,CC[C@@H](N[C@H](C)CC(N)=O)c1ccc(Cl)c(Oc2ccc3c(c2)OCC3)c1F [Example 232],1.8 µM
12,CC[C@@H](N)c1ccc(Cl)c(Oc2cccc(F)c2)c1F [Example 149],3 µM
13,CCC(CC)[C@H](N)c1ccc(Cl)c(Oc2ccccc2)c1F [Example 347],2.7 µM
14,NC(c1ccc(F)c(Oc2ccccc2)c1F)C1CCOCC1 (stereo not shown) [Example 41],7.1 µM
15,CC[C@@H](N)c1ccc(Cl)c(Oc2ccc(S(=O)(=O)NC)cc2)c1F [Example 189],8.6 µM
16,Cc1cc(Oc2c(Cl)ccc([C@@H](N)C3CCOCC3)c2F)ccc1[N+](=O)[O-] [Example 345],1.8 µM
17,C[C@H](CC(=O)NCCN)N[C@H](CC1CCOCC1)c1ccc(Cl)c(Oc2ccccc2)c1F [Example 278],3.9 µM
18,C[C@@H](CC(N)=O)NCc1ccc(Cl)c(Oc2ccccc2)c1F [Example 328],1.4 µM
19,CC[C@@H](N[C@H](C)CC(=O)NCCO)c1ccc(Cl)c(Oc2ccccc2)c1F [Example 146],3.1 µM

# Results, then the compound that gave them:
row,IC50,Compound
1,1.8 µM,"CC[C@@H](N)c1ccc(Cl)c(Oc2ccc(F)c(COC(=O)NCC3CC3)c2)c1F [Example 190, Cyclopropylmethyl-carbamic acid 5-[3-((R)-1-amino-propyl)-6-chloro-2-fluoro-phenoxy]-2-fluoro-benzyl ester.hydrochloride]"
2,1.6 µM,CC[C@@H](N)c1ccc(Cl)c(Oc2ccc(CNC(C)=O)cc2)c1F [Example 198]
3,6.3 µM,N[C@H](CCO)c1ccc(Cl)c(Oc2ccccc2)c1F [Example 343]
4,0.63 µM,"CC[C@H](N)c1ccc(Cl)c(Oc2cccc(CO)c2)c1F [Example 111, {3-[3-((S)-1-Amino-propyl)-6-chloro-2-fluoro-phenoxy]-phenyl}-methanol.hydrochloride]"
5,0.08 µM,C[C@H](CC(=O)NCCN)N[C@H](C)c1ccc(Cl)c(Oc2ccccc2)c1F [Example 340]
6,1.5 µM,CC[C@@H](N[C@H](C)CC(N)=O)c1ccc(Cl)c(Oc2ccc(C#N)cc2)c1F [Example 185]
7,1.2 µM,CC[C@@H](N)c1ccc(Cl)c(Oc2ccc(CO)cc2)c1F [Example 183]
8,3.1 µM,CC[C@@H](N)c1ccc(Cl)c(Oc2ccc(C3(CO)CC3)cc2)c1F [Example 194]
9,2.1 µM,CC[C@@H](N)c1ccc(Cl)c(Oc2ccc(C#N)c(F)c2)c1F [Example 166]
10,5.7 µM,"N[C@H](CCF)c1ccc(Cl)c(Oc2ccccc2)c1F [Example 357, (R)-1-(4-Chloro-2-fluoro-3-phenoxy-phenyl)-3-fluoro-propylamine.hydrochloride]"
11,2.6 µM,CC[C@@H](N)c1ccc(Cl)c(Oc2ccc([N+](=O)[O-])cc2)c1F [Example 197]
12,2 µM,"N[C@@H](CCO)c1ccc(Cl)c(Oc2ccccc2)c1F [Example 338, 3-Amino-3-(4-chloro-2-fluoro-3-phenoxy-phenyl)-propan-1-ol.hydrochloride]"
13,2.2 µM,"CC[C@@H](N)c1ccc(Cl)c(Oc2ccc(F)c(C(N)=O)c2)c1F [Example 227, 5-[3-((R)-1-Amino-propyl)-6-chloro-2-fluoro-phenoxy]-2-fluoro-benzamide (R isomer).hydrochloride]"
14,1.3 µM,CCNC(=O)O[C@@H](C)c1cccc(Oc2c(Cl)ccc([C@@H](N)CC)c2F)c1 [Example 140]
15,3 µM,CS(=O)(=O)Nc1cccc(Oc2c(F)ccc(CNc3ccnc(N)c3)c2F)c1 [Example 286]
16,9.7 µM,CC[C@H](CC(N)=O)N[C@H](CC)c1ccc(Cl)c(Oc2ccccc2)c1F [Example 135]
17,1.7 µM,CC[C@@H](N[C@@H](C)c1[nH]cnc1C)c1ccc(Cl)c(Oc2ccccc2)c1F [Example 148]
18,1.7 µM,CC[C@@H](N)c1ccc(Cl)c(Oc2ccc(Cl)cc2)c1F [Example 176]
19,1.3 µM,CC[C@@H](N[C@H](C)c1c[nH]cn1)c1ccc(Cl)c(Oc2ccccc2)c1F [Example 130]
20,0.61 µM,CC[C@@H](N)c1ccc(Cl)c(Oc2ccc(CC#N)cc2)c1F [Example 179]

# Same assay, conditions: read-out: Activity % inhibition @ 0.01 μM; 0.01 μM compound
row,inhibition at 0.01 µM,Compound
1,65%,C[C@@H](CC(=O)NCCN)N[C@H](C)c1ccc(Cl)c(Oc2ccccc2)c1F [Example 339]
